Experimental data as given in patent US20050113318A1, “Combination of dehydroepiandrosterone or dehydroepiandrosterone-sulfate with a beta-agonist bronchodilator for treatment of asthma or chronic obstructive pulmonary disease” (priority 2003, published 2005).

Tests used:
tissue adenosine = assay: In vivo effect on adenosine levels in various rat tissues; parameters: species or system Fischer 344 rats
Method: Folinic acid (50 mg/kg) was administered intraperitoneally once daily for fourteen days. […] Hearts were removed from animals and flash frozen in liquid nitrogen with 10 s of death. Liver and lungs were removed en bloc and flash frozen with 30 s of death. Brain tissue was subsequently dissected.

HT-29 SF cells [1] = assay: Reversal of DHEA-mediated growth inhibition; type: cell-based, human; conditions: 25 μM DHEA, 48 hours; 2 μM MVA, 80 μM SQ, 15 μg/ml CH, RN 30 μM each, DN 20 μM each
HT-29 SF cells [2] = assay: Reversal of DHEA effect on cell cycle; type: cell-based, human; conditions: 25 μM DHEA, 48 and 72 hours
HT-29 SF cells [3] = assay: DHEA effect on cell growth (Coulter counter); type: cell-based, human; conditions: 12.5-200 μM, 24-72 hours, FIG. 14
HT-29 SF cells [4] = assay: DHEA effect on cell cycle distribution (flow cytometry); type: cell-based, human
Method: Cells were plated at 10^5/60-mm dish in duplicate. […] Cultures were trypsinized following […] and fixed and stained using a modification of a procedure of Bauer et al., Cancer Res. 46, 3173-3178 (1986). Briefly, cells were collected by centrifugation and resuspended in cold phosphate-buffered saline. Cells were fixed in 70% ethanol, washed, and resuspended in phosphate-buffered saline.
After 24, 48, and 72 hours, cells were harvested, fixed in ethanol, and stained with propidium iodide, and the DNA content/cell was determined by flow cytometric analysis. The percentage of cells in G1, S, and G2M phases was calculated using the Cellfit cell cycle analysis program. S phase is marked by a quadrangle for clarity. Representative histograms from duplicate determinations are shown. The experiment was repeated three times.

[5] = Particle size of DHEA-S powders (laser diffraction, light microscope); type: physicochemical
Method: Approximately 1 g sample was passed through the jet mill, once, and approximately 2 g sample were passed through the jet mill twice. […] The resulting solution was sonicated for 3 minutes and appeared fully dispersed. The dispersed solutions were tested on a Malvern Mastersizer X with a small volume sampler (SVS) attachment. One sample of dispersed material was tested 5 times. The median particle size or D (v, 0.5) of unmilled material was 52.56 μm and the % RSD (relative standard deviation) was 7.61 for the 5 values. The D (v, 0.5) for a single pass through the jet mill was 3.90 μm and the % RSD was 1.27, and the D (v, 0.5) from a double pass through the jet mill 3.25 μm and the % RSD was 3.10.
The solution was spray-dried with a B-191 Mini Spray-Drier (Buchi, Flawil, Switzerland) with an inlet temperature of 55° C., outlet temperature of 40° C., at 100% aspirator, at 10% pump, nitrogen flow at 40 mbar and spray flow at 600 units. The spray-dried product was suspended in hexane and Span85 surfactant added to reduce agglomeration. The dispersions were sonicated with cooling for 3-5 minutes for complete dispersion and the dispersed solutions tested on a Malvern Mastersizer X with a Small Volume Sampler (SVS) attachment. […] Visual examination by light microscope of the dispersions of each batch confirmed that spray drying produced small respirable size particles. The mean particle size was 2.4 μm and 2.0 μm for each batch, respectively.
(§1) Surface area is determined using five point BET analyses are performed with nitrogen as the adsorbing gas (P/Po=0.05 to 0.30) using a Micromeritics TriStar surface area analyzer. Particle size distributions are measured by laser diffraction using a Micromeritics Saturn Digisizer where the particles are suspended in mineral oil th sodium dioctyl sodium sulfosuccinate as a dispersing agent. Drug substance water content is measured by Karl Fischer titration (Schott Titroline KF). Pure water is used as the standard and all relative standard deviations for triplicates are less than 1%. Powder is added directly to the titration media.

[6] = Physicochemical testing of DHEA-S dihydrate (BET surface area, Karl Fischer water, impurities)
Method: as §1

[7] = Fine particle fraction, single-dose Acu-Breathe inhaler into Andersen impactor; type: physicochemical; conditions: neat micronized powder, 30 to 75 L/min, FIG. 1
Method: These blisters are actuated into the Andersen 8-stage cascade impactor at flow rates ranging from 30 to 75 L/min with a glass twin-impinger throat. Stages 1-5 of the Andersen impactor are rinsed together to obtain an estimate of the fine particle fraction. Pooling the drug collected from multiple stages into one assay make the method much more sensitive. […] Using a carrier with a larger particle size typically improves the aerosol properties of micronized drug substances.
Approximately 25 mg of this powder is filled and sealed in foil blisters and aerosolized using the single-dose device at 60 L/min. The aerosol results for this preliminary powder blend are satisfactory for a respiratory drug delivery system. […] This diameter is smaller than the median diameter measured for micronized DHEA-S.dihydrate by laser diffraction. Irregularly shaped particles can behave aerodynamically as smaller particles since their longest dimension tends to align with the air flow field. Therefore, it is common to see a difference between the two methods. Diffraction measurements are a quality control test for the input material while cascade impaction is a quality control test for the finished product.

[8] = Solid-state stability with and without lactose (DHEA formed, HPLC); type: physicochemical
From the text: These conditions were used to stress the formulation in order to predict its long-term stability results. […] This color change is accompanied by a significant change in the chromatogram as shown in. FIG. 1. The primary degradant is DHEA. […] The materials on accelerated storage become more cohesive with time as evidenced by clumping during sample weighing for chemical analysis. […] This is a considerable disadvantage since lactose is the most commonly used inhalation excipient for dry powder formulations. Continuing with the virtually anhydrous form would mean limiting formulations to neat powder or undertaking more comprehensive safety studies to use a novel excipient.

[9] = Solubility of DHEA-S dihydrate and nebulizer solution properties; type: physicochemical; conditions: for solubility: range of triplicates
From the text: Inhalation of pure water can produce a cough stimulus. […] The temperature effect is weaker at high NaCl concentrations.

[10] = Short-term solution stability of DHEA-S in 0.12% NaCl; type: physicochemical; conditions: for appearance / decomposition on storage: 10 mg/mL in 0.12% NaCl
Method: Aliquots of this solution are filled into clear glass vials and stored at RT (24-26° C.) and at 40° C. The samples are checked daily for DHEA-S content, DHEA content, and appearance. For each time point, duplicate samples are withdrawn and diluted from each vial. […] The study is stopped on day three. […] The solution should easily be stable for the day of reconstitution in a clinical trial. The following section describes the aerosol properties of this formulation.

[11] = system: rat peritoneal mast cells; assay: Compound 48/80-induced histamine release from rat peritoneal mast cells; type: cell-based
Method: Following incubation, the mixture is cooled to 4° C. then centrifuged at 4500 rpm for 5 min. The supernatant is collected and mixed for 30 min at 4° C. with 5% TCA (trichloroacetic acid) to cause protein precipitation. After centrifugation at 9500×g for 15 min, the supernatant is collected and mixed with 0.25 M HCl. Thereafter, the samples are mixed with 2M NaOH and 0.2% OPT (ortho-phtalaldehyde).and incubated for 30 min at 4° C. in darkness, after which time the reaction is stopped by addition of 0.5 M H2SO4.
The amount of secreted histamine is quantified by measuring the fluorescence intensity at λex=360 nm and λem=450 nm using a spectrofluorimeter (GeminiXS, Molecular Devices). The results are expressed as a percent inhibition of control histamine secretion.

[12] = rat, daily for two weeks, DHEA, high dose methyltestosterone

## Nc1nc(=O)c2c([nH]1)NCC(CNc1ccc(C(=O)N[C@@H](CCC(=O)O)C(=O)O)cc1)N2C=O (mixture of isomers) [Folinic Acid]
Tissue adenosine; rat brain, once daily 14 days, DHEA 300 mg/kg, methyltestosterone 40 mg/kg by gavage, folinic acid 50 mg/kg i.p., mean ± SEM
  Intracellular adenosine, Brain: 0.72 ± 0.09 nmols/mg protein
Tissue adenosine; rat heart, once daily 14 days, DHEA 300 mg/kg, methyltestosterone 40 mg/kg by gavage, folinic acid 50 mg/kg i.p., mean ± SEM
  Intracellular adenosine, Heart: 12.4 ± 2.1 nmols/mg protein
Tissue adenosine; rat liver, once daily 14 days, DHEA 300 mg/kg, methyltestosterone 40 mg/kg by gavage, folinic acid 50 mg/kg i.p., mean ± SEM
  Intracellular adenosine, Liver: 16.4 ± 2.4 nmols/mg protein
Tissue adenosine; rat, 50 mg/kg i.p. 14 days
  adenosine levels, folinic acid administered alone: increase in adenosine levels for all organs studied
Tissue adenosine; rat, with DHEA or methyltestosterone
  effect of coadministration of folinic acid on steroid-mediated adenosine depletion: completely abrogated

## CC(C)CCC[C@@H](C)[C@H]1CC[C@H]2[C@@H]3CC=C4C[C@@H](O)CC[C@]4(C)[C@H]3CC[C@]12C [CH, cholesterol]
HT-29 SF cells [1]
  reversal of DHEA-induced growth inhibition by supplement: no such effect
HT-29 SF cells [2]
  prevention of DHEA-induced S phase depletion by supplement: very little effect at 48 hours and no effect at 72 hours

## C[C@]12CC[C@H](O)CC1=CC[C@@H]1[C@@H]2CC[C@]2(C)C(=O)CC[C@@H]12 [DHEA, 3β-hydroxyandrost-5-en-17-one]
HT-29 SF cells [3]
  inhibition of growth: time- and dose-dependent inhibition of growth
HT-29 SF cells [4]; 200 μM DHEA, 24 hours
  cell cycle distribution: increase in the percentage of cells in G1 and a decreased proportion of cells in S phase
HT-29 SF cells [4]; 25-200 μM, 24-72 hours, FIG. 15
  cell cycle block: G1 block
HT-29 SF cells [4]; 25 or 50 μM DHEA, 72 hours
  cell cycle distribution: percentage of cells in G1 phase was increased
HT-29 SF cells [4]; 25 or 50 μM DHEA, initial 24 hours
  cell cycle distribution: unchanged

## CC12CCC3C(CC=C4CC(OS(=O)(=O)[O-])CCC43C)C1CCC2=O.[Na+] (centres unmarked) [DHEA-S dihydrate]
[5]; Bulk, before micronization
  Particle size (D50%): 31 microns
[5]; Micronized
  Particle size (D50%): 3.7 microns
[6]; Bulk
  Impurities: No significant peaks
  Water: 8.5 % w/w
[6]; Micronized
  Impurities: No significant peaks
  Surface area: 4.9 m^2/g
  Water: 8.4 % w/w
[7]
  fine particle fraction as a function of flow rate: higher fine particle fraction than the virtually anhydrous material
[8]; 50° C., 1 week
  DHEA % formed: 0.216%
[8]; 50° C., 3 weeks
  DHEA % formed: 0.317%
[8]; 50° C., 4 weeks
  DHEA % formed: 0.374%
[8]; Control: neat, sealed vial, 25° C., 4 weeks
  DHEA % formed: 0.218%
[8]; Control: neat, sealed vial, 25° C., first time column (head empty, time 0)
  DHEA % formed: 0.213%
[8]; before storage
  water content, starting value: 8.8%
[8]; one week at 50° C.
  water content after accelerated storage: 8.66%

## C[C@]12CC[C@H](OS(=O)(=O)[O-])CC1=CC[C@@H]1[C@@H]2CC[C@]2(C)C(=O)CC[C@@H]12.[Na+] [DHEA-S, sodium dehydroepiandrostenone sulfate]
[9]
  solubility in hexane: insoluble
[9]; 0.9% NaCl, refrigerated (7-8° C.)
  solubility: 1.1 to 1.3 mg/mL
[9]; 15° C., interpolated
  Ksp: ~1316 mM^2
[9]; refrigerated (7-8° C.)
  equilibrium constant Ksp: 665 mM^2
[9]; room temperature (24-25° C.)
  equilibrium constant Ksp: 2236 mM^2
[9]; ~25° C., 0% NaCl, excess DHEA-S dihydrate
  solubility: 16.5 to 17.4 mg/mL
[10]; 7.5 mg/mL in 0.12% NaCl, RT
  solution stability of nebulizer formulation: stable for at least one day at RT
[10]; 40° C.
  appearance / decomposition on storage: became cloudy after two days of storage
[10]; RT (24-26° C.)
  appearance / decomposition on storage: slight precipitate is observed on the third day

## C[C@@](O)(CCO)CC(=O)O [MVA, mevalonic acid]
HT-29 SF cells [1]
  reversal of DHEA-induced growth inhibition by supplement: partially overcome
HT-29 SF cells [2]
  prevention of DHEA-induced S phase depletion by supplement: partially prevented this effect in the initial 48 hours but not after 72 hours

## C[C@]12CCC(=O)C=C1CC[C@@H]1[C@@H]2CC[C@@]2(C)[C@H]1CC[C@]2(C)O [Methyltestosterone]
Tissue adenosine; rat liver, methyltestosterone 120 mg/kg, mean ± SEM
  Intracellular adenosine, Liver: 5.1 ± 0.5 nmols/mg protein
Tissue adenosine; [12]
  depletion of adenosine in brain: 34%
  depletion of adenosine in heart: 22%
Tissue adenosine; rat, in vivo
  Intracellular adenosine, Liver: 16.5 ± 0.9 nmols/mg protein

## CC(C)=CCC/C(C)=C/CC/C(C)=C/CC/C=C(\C)CC/C=C(\C)CCC=C(C)C [SQ, squalene]
HT-29 SF cells [1]
  reversal of DHEA-induced growth inhibition by supplement: no such effect

## CC(C)(C)NCC(O)c1ccc(O)c(CO)c1 (stereo not drawn) [Salbutamol, (α1-tert-butylaminomothyl)-4-hydroxy-m-xylene-α1,α3-diol]
[11]; Rattus norvegicus, Mast cell
  inhibition at 1 pM: -1%
  inhibition at 10 pM: 7%
  inhibition at 0.0001 µM: 2%
[11]; Salbutamol 1, 10 and 100 pM alone
  inhibition of compound 48/80-induced histamine release: no or trivial inhibition
